Results reported in the CheMixHub ionic liquid set.
“And” between values parts separate entries of the source, which are not always exact repeats. Identical values can stand only once.

Experiment: xn = mol fraction of the nth substance listed

CO + COP(=O)([O-])OC.Cn1cc[n+](C)c1
101 kPa, x1 = 1
Conditions | viscosity [mPa·s]
303.15 K | 0.521
318.15 K | 0.44

CO + CS(=O)(=O)[O-].C[N+](C)(CCO)CCO
101 kPa, x2 = 0
Conditions | viscosity [mPa·s]
298.15 K | 0.576
303.15 K | 0.539
308.15 K | 0.506
313.15 K | 0.477
318.15 K | 0.453
323.15 K | 0.43

CC[n+]1ccn(C)c1.F[B-](F)(F)F + CS(C)=O
Conditions | electrical conductivity | viscosity [mPa·s]
293.15 K, 100 kPa, x2 = 0.4781 | – | 19.1
298.1 K, 100 kPa, x1 = 0.021 | 0.55 S/m and 0.79 S/m | –
298.1 K, 100 kPa, x1 = 0.218 | 1.77 S/m | –
298.1 K, 100 kPa, x1 = 0.381 | 1.56 S/m | –
298.1 K, 100 kPa, x1 = 0.623 | 1.37 S/m | –
298.15 K, 100 kPa, x2 = 0.4098 | – | 19.1
303.15 K, 100 kPa, x2 = 0.7866 | – | 4.91
303.15 K, 101 kPa, x2 = 0.2996 | – | 17.26
303.15 K, 101 kPa, x2 = 0.6002 | – | 8.52
303.15 K, 101 kPa, x2 = 0.7996 | – | 4.395
313.15 K, 100 kPa, x2 = 0 | – | 24.8
313.15 K, 100 kPa, x2 = 0.2931 | – | 15.4
313.15 K, 101 kPa, x2 = 0.2996 | – | 12.88
323.15 K, 101 kPa, x2 = 0.4 | – | 8.2
323.15 K, 101 kPa, x2 = 0.9002 | – | 1.996
333.15 K, 101 kPa, x2 = 0.9002 | – | 1.71
343.15 K, 100 kPa, x2 = 0 | – | 11.7
343.15 K, 100 kPa, x2 = 0.2931 | – | 7.6
343.15 K, 100 kPa, x2 = 0.8959 | – | 1.61
353.15 K, 100 kPa, x2 = 0.4781 | – | 4.48

COCCCC[n+]1ccn(C)c1.NCC(=O)[O-] + CS(C)=O
100 kPa
Conditions | viscosity [mPa·s]
288.15 K, x1 = 0.4986 | 49.18
293.15 K, x1 = 0.4986 | 37.24
293.15 K, x1 = 0.6006 | 51.07
293.15 K, x1 = 0.7941 | 84.3
298.15 K, x1 = 0.7941 | 65.57
298.15 K, x1 = 1 | 97.2
303.15 K, x1 = 0.1009 | 4.18
303.15 K, x1 = 0.299 | 10.12
308.15 K, x1 = 0.1009 | 3.59
308.15 K, x1 = 0.299 | 8.41
308.15 K, x1 = 0.701 | 34.9
318.15 K, x1 = 0.1009 | 2.72

CO + C[N+](C)(C)CCC[N+]1(C)CCCCC1.N#C[N-]C#N.N#C[N-]C#N
100 kPa, x2 = 0
Conditions | viscosity [mPa·s]
293.15 K | 0.584
323.15 K | 0.395

CO + C[N+](C)(C)CCO.NCC(=O)[O-]
100 kPa, x2 = 0
Conditions | viscosity [mPa·s]
298.15 K | 0.58
303.15 K | 0.55
308.15 K | 0.51
313.15 K | 0.47
318.15 K | 0.44
323.15 K | 0.41

OCCCCCCO + C[N+](C)(C)Cc1ccccc1.[Cl-]
101.13 kPa, x2 = 0.5
Conditions | electrical conductivity [S/m] | viscosity [mPa·s]
298 K | 0.084 | –
308 K | – | 73
